Reference: the NIST ThermoML archive (doi:10.1007/s10765-008-0503-0)

Settings: Liquid; for viscosity: Vibrating wire viscometry; for mass density: vibrating wire

COCCOC [1,2-dimethoxyethane]
Settings	mass density [kg/m3]	viscosity [mPa·s]
243.15 K, 100 kPa	919.667	0.8856
243.15 K, 4540 kPa	923.045	0.9166
243.15 K, 9560 kPa	926.586	0.9502
243.15 K, 14590 kPa	928.901	0.9855
243.15 K, 19470 kPa	931.879	1.017
253.15 K, 100 kPa	909.614	0.7464
253.15 K, 4550 kPa	912.595	0.7729
253.15 K, 9550 kPa	915.73	0.7995
253.15 K, 14450 kPa	917.844	0.8296
253.15 K, 19430 kPa	921.699	0.858
263.15 K, 100 kPa	899.206	0.642
263.15 K, 4560 kPa	901.757	0.6618
263.15 K, 9590 kPa	904.482	0.6849
263.15 K, 14590 kPa	908.179	0.7095
263.15 K, 19460 kPa	911.986	0.7337
273.15 K, 100 kPa	887.607	0.5585
273.15 K, 4560 kPa	890.738	0.5759
273.15 K, 9590 kPa	894.412	0.5961
273.15 K, 14550 kPa	898.792	0.6173
273.15 K, 19480 kPa	903.248	0.6392
283.15 K, 100 kPa	876.889	0.4904
283.15 K, 4550 kPa	880.455	0.5056
283.15 K, 9570 kPa	884.621	0.525
283.15 K, 14460 kPa	889.18	0.5458
283.15 K, 19450 kPa	892.89	0.5619
293.15 K, 100 kPa	866.528	0.4341
293.15 K, 4530 kPa	869.991	0.4492
293.15 K, 9560 kPa	875.037	0.4673
293.15 K, 14460 kPa	879.707	0.485
293.15 K, 19450 kPa	883.646	0.5011
303.15 K, 100 kPa	855.111	0.3896
303.15 K, 4540 kPa	859.667	0.4031
303.15 K, 9500 kPa	865.15	0.4197
303.15 K, 14440 kPa	869.454	0.4334
303.15 K, 19440 kPa	873.398	0.4494
313.15 K, 100 kPa	843.765	0.3512
313.15 K, 4540 kPa	848.633	0.3641
313.15 K, 9500 kPa	854.082	0.3784
313.15 K, 14440 kPa	858.578	0.3922
313.15 K, 19420 kPa	863.033	0.4055
323.15 K, 100 kPa	832.929	0.3189
323.15 K, 4560 kPa	838.334	0.3303
323.15 K, 9530 kPa	843.798	0.3433
323.15 K, 14450 kPa	848.464	0.3562
323.15 K, 19460 kPa	852.959	0.3693
333.15 K, 100 kPa	822.133	0.2903
333.15 K, 4550 kPa	827.195	0.3018
333.15 K, 9570 kPa	833.307	0.3129
333.15 K, 14460 kPa	837.525	0.3256
333.15 K, 19430 kPa	842.805	0.3372
343.15 K, 100 kPa	809.48	0.2653
343.15 K, 4540 kPa	815.487	0.2754
343.15 K, 9560 kPa	821.858	0.2868
343.15 K, 14440 kPa	827.359	0.2985
343.15 K, 19420 kPa	832.794	0.3093
353.15 K, 360 kPa	798.071	0.2437
353.15 K, 4560 kPa	803.982	0.2539
353.15 K, 9570 kPa	810.723	0.2642
353.15 K, 14440 kPa	817.205	0.2754
353.15 K, 19420 kPa	822.843	0.2858
363.15 K, 160 kPa	785.42	0.2233
363.15 K, 4560 kPa	792.463	0.233
363.15 K, 9570 kPa	799.914	0.2438
363.15 K, 14440 kPa	806.21	0.2557
363.15 K, 19420 kPa	812.462	0.2641
373.15 K, 200 kPa	772.627	0.2059
373.15 K, 4560 kPa	780.565	0.2157
373.15 K, 9580 kPa	788.637	0.2263
373.15 K, 14440 kPa	795.752	0.2355
373.15 K, 19420 kPa	802.7	0.2457

COCOC [dimethoxymethane]
Settings	mass density [kg/m3]	viscosity [mPa·s]
243.15 K, 100 kPa	917.773	0.6298
243.15 K, 4400 kPa	921.19	0.651
243.15 K, 9420 kPa	924.889	0.6752
243.15 K, 14450 kPa	928.455	0.7003
243.15 K, 19440 kPa	931.885	0.7258
253.15 K, 100 kPa	905.693	0.5389
253.15 K, 4420 kPa	909.439	0.556
253.15 K, 9410 kPa	913.399	0.5769
253.15 K, 14450 kPa	917.473	0.5975
253.15 K, 19440 kPa	921.171	0.6191
263.15 K, 100 kPa	893.705	0.4697
263.15 K, 4440 kPa	897.611	0.4857
263.15 K, 9440 kPa	901.958	0.5039
263.15 K, 14470 kPa	906.179	0.5215
263.15 K, 19470 kPa	910.144	0.5406
273.15 K, 100 kPa	881.433	0.4145
273.15 K, 4440 kPa	885.755	0.4285
273.15 K, 9440 kPa	890.38	0.4446
273.15 K, 14480 kPa	894.826	0.4615
273.15 K, 19540 kPa	899.081	0.4783
283.15 K, 100 kPa	869.282	0.3685
283.15 K, 4450 kPa	873.902	0.3818
283.15 K, 9430 kPa	878.977	0.3964
283.15 K, 14490 kPa	883.736	0.4114
283.15 K, 19550 kPa	888.33	0.4265
293.15 K, 100 kPa	857.043	0.3303
293.15 K, 4410 kPa	862.006	0.342
293.15 K, 9460 kPa	867.484	0.3559
293.15 K, 14490 kPa	872.625	0.3692
293.15 K, 19550 kPa	877.53	0.3832
303.15 K, 100 kPa	844.252	0.2963
303.15 K, 4450 kPa	849.702	0.3076
303.15 K, 9450 kPa	855.591	0.3199
303.15 K, 14490 kPa	861.24	0.3323
303.15 K, 19550 kPa	866.565	0.345
313.15 K, 160 kPa	831.685	0.2682
313.15 K, 4440 kPa	837.579	0.2785
313.15 K, 9420 kPa	843.933	0.2905
313.15 K, 14450 kPa	849.923	0.3022
313.15 K, 19440 kPa	855.5	0.3137
323.15 K, 190 kPa	818.682	0.2436
323.15 K, 4390 kPa	824.99	0.2532
323.15 K, 9420 kPa	832.095	0.2644
323.15 K, 14460 kPa	838.549	0.2758
323.15 K, 19490 kPa	844.585	0.2866
333.15 K, 210 kPa	805.334	0.2202
333.15 K, 4390 kPa	812.279	0.229
333.15 K, 9410 kPa	819.852	0.2401
333.15 K, 14450 kPa	826.872	0.2504
333.15 K, 19450 kPa	833.322	0.261
343.15 K, 280 kPa	791.705	0.2009
343.15 K, 4430 kPa	799.263	0.2096
343.15 K, 9430 kPa	807.432	0.2203
343.15 K, 14460 kPa	815.084	0.2301
343.15 K, 19460 kPa	822.037	0.24
353.15 K, 360 kPa	777.688	0.1837
353.15 K, 4370 kPa	785.794	0.1922
353.15 K, 9400 kPa	794.895	0.2024
353.15 K, 14450 kPa	803.147	0.2123
353.15 K, 19430 kPa	810.634	0.2217
363.15 K, 430 kPa	763.12	0.1688
363.15 K, 4400 kPa	772.066	0.1767
363.15 K, 9410 kPa	782.127	0.1868
363.15 K, 14450 kPa	791.118	0.1963
363.15 K, 19460 kPa	799.153	0.2059
373.15 K, 550 kPa	748.032	0.1551
373.15 K, 4370 kPa	757.736	0.1628
373.15 K, 9400 kPa	768.901	0.1728
373.15 K, 14450 kPa	778.77	0.1822
373.15 K, 19480 kPa	787.494	0.1914
